Values joined by “and” are separate entries in the source; they are usually repeats but may differ in a detail not shown here. Equal entries are not always repeated. Toxic doses and inconclusive results are not listed.
System: BDF1 mice, P388 leukemia ip, median survival T/C
Test: NCI In Vivo Anticancer Drug Screen. Data for tumor model P388 Leukemia (intraperitoneal) in B6D2F1 (BDF1) mice
Settings: endpoint: median survival time, higher = longer survival
Summary of the method: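 Mice carrying the transplantable tumour receive compound or vehicle. Survival is followed in each arm, and the treated measure is divided by the vehicle measure.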

[1] = dose: 50.0 mg/kg/injection, schedule: Q01DX009 (ip), vehicle: saline
[2] = dose: 75.0 mg/kg/injection, schedule: Q01DX009 (ip), vehicle: saline
[3] = dose: 100.0 mg/kg/injection, schedule: Q04DX003 (ip), vehicle: saline
[4] = dose: 200.0 mg/kg/injection, schedule: Q04DX003 (ip), vehicle: saline
[5] = dose: 50.0 mg/kg/injection, schedule: Q01DX005 (ip), vehicle: saline with Tween-80
[6] = dose: 200.0 mg/kg/injection, schedule: Q01DX005 (ip), vehicle: saline with Tween-80

CN(C)[C@@H]1C(=O)C(C(=O)NCN(CCCl)CCCl)=C(O)[C@@]2(O)C(=O)C3=C(O)c4c(O)cccc4[C@@](C)(O)[C@H]3C[C@@H]12
T/C (dose: 3.12 mg/kg/injection, schedule: Q01DX009 (ip), vehicle: saline with Tween-80): 104 % of control
T/C (dose: 6.25 mg/kg/injection, schedule: Q01DX009 (ip), vehicle: Klucel (hydroxypropylcellulose) (HPC)): 91 % of control
T/C (dose: 6.25 mg/kg/injection, schedule: Q01DX009 (ip), vehicle: saline with Tween-80): 100 % of control
T/C (dose: 9.0 mg/kg/injection, schedule: Q01DX009 (ip), vehicle: saline): 159 % of control
T/C (dose: 12.5 mg/kg/injection, schedule: Q01DX009 (ip), vehicle: Klucel (hydroxypropylcellulose) (HPC)): 108 % of control
T/C (dose: 12.5 mg/kg/injection, schedule: Q01DX009 (ip), vehicle: saline with Tween-80): 100 % of control
T/C (dose: 14.0 mg/kg/injection, schedule: Q01DX009 (ip), vehicle: saline): 172 % of control
T/C (dose: 20.0 mg/kg/injection, schedule: Q04DX003 (ip), vehicle: saline): 150 % of control
T/C (dose: 22.0 mg/kg/injection, schedule: Q01DX009 (ip), vehicle: saline): 161 % of control and 209 % of control
T/C (dose: 25.0 mg/kg/injection, schedule: Q01DX009 (ip), vehicle: saline with Tween-80): 90 % of control and 109 % of control
T/C (dose: 33.0 mg/kg/injection, schedule: Q01DX009 (ip), vehicle: saline): 169 % of control
T/C (dose: 33.0 mg/kg/injection, schedule: Q04DX003 (ip), vehicle: saline with Tween-80): 163 % of control
T/C (dose: 44.0 mg/kg/injection, schedule: Q04DX003 (ip), vehicle: saline): 186 % of control
T/C (dose: 50.0 mg/kg/injection, schedule: Q01DX009 (ip), vehicle: Klucel (hydroxypropylcellulose) (HPC)): 163 % of control
T/C (dose: 50.0 mg/kg/injection, schedule: Q01DX009 (ip), vehicle: saline with Tween-80): 86 % of control and 109 % of control
T/C [1]: 203 % of control and 208 % of control
T/C (dose: 50.0 mg/kg/injection, schedule: Q04DX003 (ip), vehicle: saline with Tween-80): 186 % of control
T/C (dose: 67.0 mg/kg/injection, schedule: Q04DX003 (ip), vehicle: saline): 196 % of control
T/C [2]: 211 % of control
T/C (dose: 75.0 mg/kg/injection, schedule: Q04DX003 (ip), vehicle: saline with Tween-80): 218 % of control
T/C (dose: 100.0 mg/kg/injection, schedule: Q01DX009 (ip), vehicle: saline with Tween-80): 109 % of control
T/C [3]: 229 % of control and 220 % of control
T/C [4]: 91 % of control

C=C1C(=O)O[C@@H]2C[C@@H](C)[C@@H]3[C@@H](OC4OC(COC(C)=O)C(O)C(O)C4O)CC(=O)[C@@]3(C)C[C@H]12 (stereo not given in full)
T/C (dose: 2.8 mg/kg/injection, schedule: Q01DX009 (ip), vehicle: saline): 100 % of control
T/C (dose: 4.2 mg/kg/injection, schedule: Q01DX009 (ip), vehicle: saline): 122 % of control
T/C [1]: 100 % of control
T/C [2]: 105 % of control

CN(C)C(=O)NNC(=O)N(C)C
T/C (dose: 100.0 mg/kg/injection, schedule: Q01DX009 (ip), vehicle: saline): 104 % of control
T/C [3]: 100 % of control
T/C (dose: 200.0 mg/kg/injection, schedule: Q01DX009 (ip), vehicle: saline): 95 % of control
T/C [4]: 100 % of control
T/C (dose: 400.0 mg/kg/injection, schedule: Q01DX009 (ip), vehicle: saline): 95 % of control
T/C (dose: 400.0 mg/kg/injection, schedule: Q04DX003 (ip), vehicle: saline): 100 % of control

N#CCN1CCOCC1
T/C [2]: 104 % of control
T/C [3]: 104 % of control
T/C (dose: 150.0 mg/kg/injection, schedule: Q01DX009 (ip), vehicle: saline): 95 % of control
T/C [4]: 104 % of control

CCN(CC)CCOC(=O)c1ccc([N+](=O)[O-])c2ccccc12
T/C [5]: 98 % of control
T/C (dose: 100.0 mg/kg/injection, schedule: Q01DX005 (ip), vehicle: saline with Tween-80): 88 % of control
T/C [6]: 88 % of control

CCCCCc1cc(/C=C2/N=C(c3ccc[nH]3)C=C2OC)[nH]c1C
T/C (dose: 1.0 mg/kg/injection, schedule: Q01DX009 (ip), vehicle: other): 118 % of control
T/C (dose: 2.0 mg/kg/injection, schedule: Q01DX009 (ip), vehicle: other): 118 % of control

Oc1ccccc1O.[O-]c1ccccc1[O-].[O-]c1ccccc1[O-].[O]=[V+2]
T/C (dose: 9.37 mg/kg/injection, schedule: Q01DX009 (ip), vehicle: saline): 89 % of control
T/C (dose: 9.37 mg/kg/injection, schedule: Q04DX003 (ip), vehicle: saline): 100 % of control
T/C (dose: 18.75 mg/kg/injection, schedule: Q01DX009 (ip), vehicle: saline): 94 % of control
T/C (dose: 18.75 mg/kg/injection, schedule: Q04DX003 (ip), vehicle: saline): 109 % of control
T/C (dose: 24.0 mg/kg/injection, schedule: Q04DX003 (ip), vehicle: saline): 104 % of control
T/C (dose: 24.7 mg/kg/injection, schedule: Q04DX003 (ip), vehicle: saline): 100 % of control
T/C (dose: 37.0 mg/kg/injection, schedule: Q04DX003 (ip), vehicle: saline): 105 % of control
T/C (dose: 37.5 mg/kg/injection, schedule: Q01DX009 (ip), vehicle: saline): 89 % of control
T/C (dose: 37.5 mg/kg/injection, schedule: Q04DX003 (ip), vehicle: saline): 100 % of control
T/C (dose: 55.0 mg/kg/injection, schedule: Q04DX003 (ip), vehicle: saline): 100 % of control
T/C (dose: 55.5 mg/kg/injection, schedule: Q04DX003 (ip), vehicle: saline): 90 % of control

CS(=O)(=O)c1ncc2cnccn12
T/C (dose: 100.0 mg/kg/injection, schedule: Q04DX003 (ip), vehicle: water): 110 % of control

COc1ccc(CCNC(=S)NCCc2ccc(OC)c(OC)c2)cc1OC
T/C (dose: 50.0 mg/kg/injection, schedule: Q01DX001 (ip), vehicle: Klucel (hydroxypropylcellulose) (HPC)): 100 % of control
T/C (dose: 100.0 mg/kg/injection, schedule: Q01DX001 (ip), vehicle: Klucel (hydroxypropylcellulose) (HPC)): 100 % of control
T/C (dose: 200.0 mg/kg/injection, schedule: Q01DX001 (ip), vehicle: Klucel (hydroxypropylcellulose) (HPC)): 90 % of control

CCCCCCCCCCNc1ccc(NCCCCCCCCCC)cc1
T/C (dose: 100.0 mg/kg/injection, schedule: Q01DX009 (ip), vehicle: Klucel (hydroxypropylcellulose) (HPC)): 100 % of control
T/C (dose: 100.0 mg/kg/injection, schedule: Q04DX003 (ip), vehicle: Klucel (hydroxypropylcellulose) (HPC)): 120 % of control
T/C (dose: 400.0 mg/kg/injection, schedule: Q01DX009 (ip), vehicle: Klucel (hydroxypropylcellulose) (HPC)): 100 % of control

CC(C)CC(NC(=O)c1ccccc1)C(=O)O (stereo not given)
T/C (dose: 100.0 mg/kg/injection, schedule: Q04DX003 (ip), vehicle: alkali diluted with water): 99 % of control
T/C (dose: 200.0 mg/kg/injection, schedule: Q04DX003 (ip), vehicle: alkali diluted with water): 99 % of control
T/C (dose: 400.0 mg/kg/injection, schedule: Q04DX003 (ip), vehicle: alkali diluted with water): 108 % of control

Fc1ccc(CSc2ncnc3c2ncn3C2CCCCO2)cc1 (stereo not given)
T/C (dose: 100.0 mg/kg/injection, schedule: Q04DX003 (ip), vehicle: other): 100 % of control
T/C (dose: 200.0 mg/kg/injection, schedule: Q01DX009 (ip), vehicle: Klucel (hydroxypropylcellulose) (HPC)): 100 % of control
T/C (dose: 200.0 mg/kg/injection, schedule: Q04DX003 (ip), vehicle: other): 100 % of control
T/C (dose: 400.0 mg/kg/injection, schedule: Q04DX003 (ip), vehicle: other): 105 % of control

O=C1CN(c2ccccc2)CC(=O)N2CCCN12
T/C [5]: 92 % of control
T/C [6]: 88 % of control

Cc1ncc2c[n+]([O-])ccn12
T/C (dose: 50.0 mg/kg/injection, schedule: Q04DX003 (ip), vehicle: saline): 100 % of control
T/C [3]: 100 % of control
T/C [4]: 90 % of control

Nc1cccc(/C=C/c2ccnc3ccccc23)c1
T/C (dose: 25.0 mg/kg/injection, schedule: Q01DX001 (ip), vehicle: saline with Tween-80): 97 % of control
T/C (dose: 50.0 mg/kg/injection, schedule: Q01DX001 (ip), vehicle: saline with Tween-80): 97 % of control
T/C (dose: 100.0 mg/kg/injection, schedule: Q01DX001 (ip), vehicle: saline with Tween-80): 93 % of control and 110 % of control
T/C (dose: 200.0 mg/kg/injection, schedule: Q01DX001 (ip), vehicle: saline with Tween-80): 119 % of control
T/C (dose: 400.0 mg/kg/injection, schedule: Q01DX001 (ip), vehicle: saline with Tween-80): 102 % of control

O=[N+]([O-])c1ccc(CCSCCc2ccc([N+](=O)[O-])cc2)cc1
T/C (dose: 50.0 mg/kg/injection, schedule: Q01DX005 (ip), vehicle: Klucel (hydroxypropylcellulose) (HPC)): 104 % of control
T/C (dose: 100.0 mg/kg/injection, schedule: Q01DX005 (ip), vehicle: Klucel (hydroxypropylcellulose) (HPC)): 97 % of control
T/C (dose: 200.0 mg/kg/injection, schedule: Q01DX005 (ip), vehicle: Klucel (hydroxypropylcellulose) (HPC)): 94 % of control

Reference: PubChem BioAssay AID328 (DTP/NCI, 2004)
